From publication PMC5931096, “A Phase I study of the novel immunomodulatory agent PG545 (pixatimod) in subjects with advanced solid tumours” (British Journal of Cancer, 2018)

Experiment: Phase I dose-escalation: safety, tolerability, DLT and MTD of weekly 1-h IV infusion
Format: in vivo
Method: The study was an open-label, multicentre, phase 1 dose-escalation study using a 3 + 3 design. The primary objective was to determine the MTD of weekly administered PG545 via IV infusion. Secondary objectives were to characterize safety, tolerability, clinical activity, PK and PD biomarkers.
Patients continued treatment until disease progression, unacceptable toxicity or withdrawal (either voluntarily or investigator-decision).
All patients were assessed for safety, those who received at least one dose of PG545 were evaluated for efficacy. Safety assessment included the incidence of all adverse events (AEs), irrespective of relationship to study drug, according to the National Cancer Institute Common Terminology Criteria for Adverse Events, version 4.0, and the incidence of patients experiencing dose modifications and/or premature discontinuation of study drug. Dose-limiting toxicities (DLTs) used to determine the MTD were defined as occurring during Cycle 1 of treatment only and related to PG545 according to investigator assessment. If no DLT occurred in the first three subjects, the next three-subject cohort was enrolled at the next highest available dose level. If a single DLT occurred, an additional three subjects was enrolled at the same dose level. Dose escalation continued until two subjects of the cohort experienced a DLT; this was defined as the toxic dose level. The dose-escalation phase was completed and MTD determined by reducing the dose to the next lowest dose compared to the toxic dose and expanding this cohort to at least 6 subjects.

[1] = 150 mg, during or 1 h post-infusion, typical
[2] = Life threatening/Fatal, Unrelated, Safety Set

CC(C)CCC[C@@H](C)[C@H]1CC[C@H]2[C@@H]3CC[C@H]4C[C@@H](O[C@@H]5O[C@H](COS(=O)(=O)O)[C@@H](O[C@H]6O[C@H](COS(=O)(=O)O)[C@@H](O[C@H]7O[C@H](COS(=O)(=O)O)[C@@H](O[C@H]8O[C@H](COS(=O)(=O)O)[C@@H](OS(=O)(=O)O)[C@H](OS(=O)(=O)O)[C@H]8OS(=O)(=O)O)[C@H](OS(=O)(=O)O)[C@H]7OS(=O)(=O)O)[C@H](OS(=O)(=O)O)[C@H]6OS(=O)(=O)O)[C@H](OS(=O)(=O)O)[C@H]5OS(=O)(=O)O)CC[C@]4(C)[C@H]3CC[C@]12C [PG545]
Pyrexia, treatment-related AE (100 mg, N = 6): 1 (17) n (%)
Dose-limiting toxicities (DLTs), number (150 mg cohort, first cycle): Three
Acute pulmonary oedema, related AE leading to discontinuation (150 mg, N = 9): 1 (11) n (%)
Acute pulmonary oedema, related serious AE (150 mg, N = 9): 1 (11) n (%)
Acute pulmonary oedema, related severe AE (150 mg, N = 9): 1 (11) n (%)
Blood cholesterol increased, related severe AE (150 mg, N = 9): 1 (11) n (%)
Blood cholesterol increased, treatment-related AE (150 mg, N = 9): 1 (11) n (%)
Blood pressure increased, related severe AE (150 mg, N = 9): 1 (11) n (%)
Chills, related AE leading to discontinuation (150 mg, N = 9): 0 n (%)
Chills, related severe AE (150 mg, N = 9): 1 (11) n (%)
Chills, treatment-related AE (150 mg, N = 9): 4 (44) n (%)
Decreased appetite, treatment-related AE (150 mg, N = 9): 2 (22) n (%)
Diarrhoea, treatment-related AE (150 mg, N = 9): 1 (11) n (%)
Epistaxis, related AE leading to discontinuation (150 mg, N = 9): 1 (11) n (%)
Epistaxis, related serious AE (150 mg, N = 9): 1 (11) n (%)
Epistaxis, related severe AE (150 mg, N = 9): 1 (11) n (%)
Fatigue, related severe AE (150 mg, N = 9): 0 n (%)
Fatigue, treatment-related AE (150 mg, N = 9): 1 (11) n (%)
Headache, treatment-related AE (150 mg, N = 9): 0 n (%)
Hypercholesterolemia, treatment-related AE (150 mg, N = 9): 0 n (%)
Hyperlipidaemia, related severe AE (150 mg, N = 9): 0 n (%)
Hypertension, related AE leading to discontinuation (150 mg, N = 9): 1 (11) n (%)
Hypertension, related serious AE (150 mg, N = 9): 1 (11) n (%)
Hypertension, related severe AE (150 mg, N = 9): 5 (56) n (%)
Hypertension, treatment-related AE (150 mg, N = 9): 5 (56) n (%)
Hypovolaemia, related serious AE (150 mg, N = 9): 0 n (%)
Infusion-related reaction, related serious AE (150 mg, N = 9): 1 (11) n (%)
Infusion-related reaction, related severe AE (150 mg, N = 9): 1 (11) n (%)
Infusion-related reaction, treatment-related AE (150 mg, N = 9): 5 (56) n (%)
Injection site reaction, treatment-related AE (150 mg, N = 9): 0 n (%)
Nausea, treatment-related AE (150 mg, N = 9): 1 (11) n (%)
Pyrexia, related AE leading to discontinuation (150 mg, N = 9): 0 n (%)
Pyrexia, related serious AE (150 mg, N = 9): 0 n (%)
Pyrexia, related severe AE (150 mg, N = 9): 0 n (%)
Pyrexia, treatment-related AE (150 mg, N = 9): 1 (11) n (%)
Diastolic pressure during hypertension events, increase to [1]: 100 mm Hg
Systolic pressure during hypertension events, increase to [1]: 170 mm Hg
Blood pressure, substantial increase in one subject, to (150 mg, one subject): 200/126
TEAE: At least one event (Life threatening/Fatal, Related, Safety Set): 0 (0.0%)
TEAE: At least one event [2]: 5 (21.7%)
TEAE: Death [2]: 2 (8.7%)
TEAE: Fatigue [2]: 1 (4.3%)
TEAE: GGT increased [2]: 3 (13.0%)
TEAE: General disorders and administration site conditions [2]: 3 (13.0%)
TEAE: Hyperuricaemia [2]: 1 (4.3%)
TEAE: Investigations [2]: 3 (13.0%)
TEAE: Metabolism and nutritional disorders [2]: 1 (4.3%)
TEAE: Abdominal distension (Mild, Related, Safety Set): 1 (4.3%)
TEAE: Abdominal pain lower (Mild, Related, Safety Set): 1 (4.3%)
TEAE: Anaemia (Mild, Related, Safety Set): 1 (4.3%)
TEAE: Asthenia (Mild, Related, Safety Set): 1 (4.3%)
TEAE: At least one event (Mild, Related, Safety Set): 16 (70.0%)
TEAE: Back pain (Mild, Related, Safety Set): 1 (4.3%)
TEAE: Blood ALP increased (Mild, Related, Safety Set): 1 (4.3%)
TEAE: Blood and lymphatic system disorders (Mild, Related, Safety Set): 1 (4.3%)
TEAE: Blood cholesterol increased (Mild, Related, Safety Set): 1 (4.3%)
TEAE: Blood triglycerides increased (Mild, Related, Safety Set): 1 (4.3%)
TEAE: Chills (Mild, Related, Safety Set): 2 (8.7%)
TEAE: Constipation (Mild, Related, Safety Set): 1 (4.3%)
TEAE: Cough (Mild, Related, Safety Set): 1 (4.3%)
TEAE: Decreased appetite (Mild, Related, Safety Set): 4 (17.4%)
TEAE: Diarrhoea (Mild, Related, Safety Set): 4 (17.5%)
TEAE: Diplopia (Mild, Related, Safety Set): 1 (4.3%)
TEAE: Dizziness (Mild, Related, Safety Set): 1 (4.3%)
TEAE: Dysgeusia (Mild, Related, Safety Set): 1 (4.3%)
TEAE: Dyspepsia (Mild, Related, Safety Set): 1 (4.3%)
TEAE: Eye disorders (Mild, Related, Safety Set): 1 (4.3%)
TEAE: Fall (Mild, Related, Safety Set): 1 (4.3%)
TEAE: Fatigue (Mild, Related, Safety Set): 1 (4.3%)
TEAE: Gastrointestinal disorders (Mild, Related, Safety Set): 8 (34.8%)
TEAE: General disorders and administration site conditions (Mild, Related, Safety Set): 11 (47.8%)
TEAE: Headache (Mild, Related, Safety Set): 2 (8.7%)
TEAE: Hypercholesterolaemia (Mild, Related, Safety Set): 1 (4.3%)
TEAE: Hypovolaemia (Mild, Related, Safety Set): 1 (4.3%)
TEAE: Infusion related reaction (Mild, Related, Safety Set): 1 (4.3%)
TEAE: Injection site reaction (Mild, Related, Safety Set): 2 (8.7%)
TEAE: Injury, poisoning and procedural complications (Mild, Related, Safety Set): 2 (8.7%)
TEAE: Investigations (Mild, Related, Safety Set): 3 (13.0%)
TEAE: Low density lipoprotein increased (Mild, Related, Safety Set): 1 (4.3%)
TEAE: Malaise (Mild, Related, Safety Set): 1 (4.3%)
TEAE: Metabolism and nutritional disorders (Mild, Related, Safety Set): 5 (21.7%)
TEAE: Musculoskeletal and connective tissue disorders (Mild, Related, Safety Set): 2 (8.7%)
TEAE: Musculoskeletal pain (Mild, Related, Safety Set): 1 (4.3%)
TEAE: Nausea (Mild, Related, Safety Set): 4 (17.5%)
TEAE: Nervous system disorders (Mild, Related, Safety Set): 3 (13.0%)
TEAE: Oxygen saturation decreased (Mild, Related, Safety Set): 1 (4.3%)
TEAE: Peripheral coldness (Mild, Related, Safety Set): 1 (4.3%)
TEAE: Pyrexia (Mild, Related, Safety Set): 5 (21.7%)
TEAE: Rash (Mild, Related, Safety Set): 1 (4.3%)
TEAE: Rash erythematous (Mild, Related, Safety Set): 1 (4.3%)
TEAE: Respiratory, thoracic and mediastinal disorders (Mild, Related, Safety Set): 1 (4.3%)
TEAE: Skin and subcutaneous tissue disorders (Mild, Related, Safety Set): 2 (8.7%)
TEAE: Vascular disorders (Mild, Related, Safety Set): 1 (4.3%)
TEAE: Abdominal distension (Mild, Unrelated, Safety Set): 1 (4.3%)
TEAE: Abdominal pain (Mild, Unrelated, Safety Set): 2 (8.7%)
TEAE: Abdominal pain upper (Mild, Unrelated, Safety Set): 1 (4.3%)
TEAE: Anxiety (Mild, Unrelated, Safety Set): 2 (8.7%)
TEAE: Ascites (Mild, Unrelated, Safety Set): 1 (4.3%)
TEAE: Back pain (Mild, Unrelated, Safety Set): 2 (8.7%)
TEAE: Blood ALP increased (Mild, Unrelated, Safety Set): 1 (4.3%)
